Results: patent US20250085295A1, “METHODS FOR MEASURING INTERACTIONS BETWEEN PROTEINS COMPRISING AN FC PORTION AND PARTICLES” (NANOTEMPER TECHNOLOGIES GMBH, priority 2023, published 2025)
Each block holds one substance with its values, some of them ahead of it.

Experiments:
IgG antibody = details: literature DOI cited; read-out: affinity of Fc-binding peptide to IgG antibody; cited from earlier work
IgA antibody = details: literature DOI cited; read-out: affinity of Fc-binding peptide to IgA antibody; cited from earlier work
Trastuzumab [1] = assay: TRIC signal at 670 nm, dose-response of fluorescent peptide tracer vs Trastuzumab; assay type: binding; details: 2.4 nM peptide, Trastuzumab dilution series, IR laser heating 5 s, FIGS. 3 and 4
Procedure: (§1) The fluorescent peptide tracer was dissolved in 100% DMSO to obtain stock solutions of 2.4 mM for FcIII and FcT. Subsequently, 16 or 24 point 1-to-1 dilution series of unlabeled Trastuzumab antibodies with stock concentrations of 825 µM were prepared leading to final assay concentrations of 2062.5 nM for Trastuzumab and a FCT and FcIII concentration of 2.4 nM. Samples were loaded into Dianthus 384-well plates (DI-P001A, NanoTemper Technologies) or polymer-coated borosilicate glass capillaries (Monolith NT.115 Premium Capillaries, MO-K025, NanoTemper Technologies). Measurements were taken with Nano Temper Software (MO.Control 2, DI.Control) by excitation at 591 nm and recording of fluorescence traces at 650 nm and 670 nm. For results showing TRIC results, simultaneous induction heat via an IR laser was induced and the thermophoretic behavior recorded for 5s.

[2] = molecular target: T1, Her2/ERBB2 Protein, Human, Recombinant (ECD, His Tag) (Homo sapiens, UniProt P04626); assay: Interaction of Her2 with labeled Trastuzumab in spectral shift (SpS); assay type: binding; details: 4 nM Trastuzumab, 2.4 nM tracer, Her2 up to 220 nM; FIGS. 5 and 7
T1 construct: Her2/ERBB2 Protein, Human, Recombinant (ECD, His Tag); His tag; purchased Sino Biological 10004-H08H
Procedure: (§2) The fluorescent peptide tracer was dissolved in 100% DMSO to obtain stock solutions of 2.4 mM for FcIII and FcT. Peptide tracers were mixed with 8 nM Trastuzumab and incubated for 15 min. Subsequently, 16 or 24 point 1-to-1 dilution series of Her2 were prepared and mixed 1:1 with prepared peptide: trastuzumab dilution, leading to final assay concentrations of 4 nM for Trastuzumab, 2.4 nM FcT and FcIII, and 220 nM as highest in-assay concentration of Her2. Samples were loaded into Dianthus 384-well plates (DI-P001A, NanoTemper Technologies) or polymer-coated borosilicate glass capillaries (Monolith NT.115 Premium Capillaries, MO-K025, NanoTemper Technologies). Measurements were taken with Nano Temper Software (MO.Control 2, DI.Control) by excitation at 591 nm and recording of fluorescence traces at 650 nm and 670 nm. For results showing TRIC results, simultaneous heat via an IR laser was induced and the thermophoretic behavior recorded for 5s.
(§3) For NHS labeling of Trastuzumab, NHS labeling kit 2nd generation (NanoTemper Technologies) was used. In short, Trastuzumab was exchanged into NHS labeling buffer and mixed with NHS-NTT dye. After incubation in the dark for 30 min, unreacted dye was separated using a B-column provided with the kit. Eluting fractions containing 2.5 µM labeled Trastuzumab were collected and stored at −80° C.

[3] = Thermal unfolding analysis using Fc-peptide labeling (670/650 nm ratio, first derivative); assay type: physicochemical; details: free FcIII without antibody, heating 1° C./min; FIG. 14A, 14B
Procedure: The fluorescent peptide tracer was dissolved in 100% DMSO to obtain stock solutions of 2.4 mM for FcIII. […] Samples were loaded into capillaries, excited at 591 nm and fluorescence was recorded at 650 and 670 nm. Samples were heated a rate of 1° C./min while recording fluorescence signals.

Trastuzumab [4] = assay: Spectral shift (SpS, 670/650 nm ratio) dose-response of fluorescent peptide tracer vs Trastuzumab; assay type: binding; details: for binding affinity of fluorescent peptide to Trastuzumab, spectral shift response (SpS): 2.4 nM peptide, Trastuzumab dilution series up to 2062.5 nM, excitation 591 nm, 650/670 nm, FIGS. 1 and 2
Procedure: as §1
To evaluate the importance of the right affinity for this labeling approach, also a fluorescent peptide tracer was designed based on previously published findings based on a combinatorial tetrapeptide library (Camperi et al., Biotechnol Lett (2003), 25:1545-1548). To this end, the tetrapeptide APAR, which was previously found to bind to Immunoglobulin G was synthesized with an N-terminal lysine to accommodate further conjugation with Cy5 dye. The resulting fluorescent peptide tracer Cy5-KAPAR (cf. SEQ ID NO: 9) was dissolved in 100% DMSO to obtain stock solutions of 4.96 mM. The stock solution was further diluted in PBS-P. Subsequently 24 point 1-to-1 dilution series of unlabeled Trastuzumab antibody with stock concentrations of 825 μM were prepared leading to final assay concentrations of 412 μM for Trastuzumab and a Cy5-KAPAR (cf. SEQ ID NO: 9) concentration of 2.5 nM. Samples were loaded into Dianthus 384-well plates (DI-P001A, NanoTemper Technologies). Measurements were taken with Nano Temper Software (DI.Control) by excitation at 591 nm and recording of fluorescence traces at 650 nm and 670 nm. […] Such affinities result in required assay concentrations of over 100 μM in ligand-binding assays, which can hardly be achieved due to antibody solubility and availability. Furthermore, only affinities lower than the used concentration of antibody could reliable be determined, severely limiting the approach.

[5] = molecular target: T1, Her2/ERBB2 Protein, Human, Recombinant (ECD, His Tag); assay: Interaction of Her2 with labeled Trastuzumab in TRIC 670 nm; assay type: binding; details: 4 nM Trastuzumab, 2.4 nM tracer, Her2 up to 220 nM; FIGS. 6 and 8
Procedure: as §2, §3

Substance: CDCAWHLGELVWCTC [Fc-III-4C]
Kd (IgG antibody): 2.5 nM

Substance: DCAWHLGELVWCT [Fc-III]
Kd (IgG antibody): 16 to 25 nM

Substance: HQVCLSYRGRPVCFST
Kd (IgA antibody): 72 nM

Substance: KHRFNKD
Kd (IgG antibody): 20 nM

Substance: L-Pro DCAWHLGELVWCT D-Pro [FcBP2]
Kd (IgG antibody): 1.8 nM

Substance: RRGW
Kd (IgG antibody): 0.5 nM

Substance: [Cyc(2,12)]Cy5-DCAWHLGELVWCT-NH2 [FcIII]
binding affinity of fluorescent peptide to Trastuzumab, TRIC (Trastuzumab [1]): Clear binding with nanomolar affinities
binding of Her2 to Trastuzumab labeled with the peptide tracer, spectral shift dose-response [2]: clearly show the binding of Her2
thermal profile, unfolding events in the first derivative [3]: no distinct unfolding events
binding affinity of fluorescent peptide to Trastuzumab, spectral shift response (SpS) (Trastuzumab [4]): Clear binding with nanomolar affinities
binding of Her2 to Trastuzumab labeled with the peptide tracer, TRIC signal dose-response [5]: clearly show the binding of Her2

Substance: [Cyc(2,12)]NTTred-DCAWHLGELVWCT-OH [FcT]
binding affinity of fluorescent peptide to Trastuzumab, TRIC (Trastuzumab [1]): Clear binding with nanomolar affinities
binding of Her2 to Trastuzumab labeled with the peptide tracer, spectral shift dose-response [2]: clearly show the binding of Her2
binding affinity of fluorescent peptide to Trastuzumab, spectral shift response (SpS) (Trastuzumab [4]): Clear binding with nanomolar affinities
binding of Her2 to Trastuzumab labeled with the peptide tracer, TRIC signal dose-response [5]: clearly show the binding of Her2

ratiometric change in the 670/650 nm fluorescence upon binding of Trastuzumab (Trastuzumab [4]; 2.5 nM Cy5-KAPAR, Trastuzumab up to 412 μM): large ratiometric change
Kd (Trastuzumab [4]; 2.5 nM Cy5-KAPAR, Trastuzumab up to 412 μM, spectral shift 670/650 nm, read-out: affinity to Trastuzumab (estimated, saturation not reached)): > 60000 nM
Substance: low affinity fluorescent peptide tracer, tetrapeptide APAR with N-terminal lysine conjugated with Cy5 (cf. SEQ ID NO: 9) [Cy5-KAPAR, Cy5-KAPAR-OH]
